Measured values published in publication PMC5980230, “Mucosal absorption of therapeutic peptides by harnessing the endogenous sorting of glycosphingolipids” (eLife, 2018).
Values joined by “and” are separate entries in the source; they are usually repeats but may differ in a detail not shown here. Equal entries are not always repeated.

Tests used:
[1] = Intraperitoneal glucose tolerance test; format: in vivo; parameters: unit not given here; conditions: IP injected, individual mice, not corrected
Text: To test for absorption and biologic incretin activity in vivo, we gastrically gavaged equal doses (10 nmol/kg) of the C6:0-GM1-GLP-1 fusion, the unfused GLP-1 peptide (GLP-1 oral), or vehicle into wild-type mice and measured effects on glucose metabolism by glucose tolerance test (Figure 5C). […] The effect on glucose tolerance by gastrically administered C6:0-GM1-GLP-1 was similar to the effect achieved by the intraperitoneal injection of GLP-1 peptide alone, implicating an equally high level of bioavailability for the gastrically-delivered GM1-fusion molecule (Figure 5D).
For intraperitoneal glucose tolerance tests, a 10 nmol/kg dose was used to gavage overnight-fasted WT C57/BL/6 mice (male 7–9 weeks old) with GM1-GLP-1 fusion molecules or unfused GLP-1. Glucose measurements following i.p administration of 2 mg/g glucose solution were obtained from tail vein blood applied directly to glucose strips as in ([te Welscher et al., 2014]).

[2] = GLP-1 in blood by streptavidin capture and luciferase bioassay; format: in vivo; conditions: individual mice, Ex 3 excluded from Figure 5E
Text: We confirmed intestinal absorption of the C6:0-GM1-GLP-1 into the systemic circulation in two ways. First, we measured GLP-1 activity in blood samples by streptavidin capture and quantitative luciferase bioassay (Figure 5E). […] In a second approach, we synthesized an all D-amino acid (non-degradable) isomer of GLP-1 coupled to AF488 to allow for direct quantitative measurement of the […] isomer in the blood using the same streptavidin capture assay as described for our reporter peptide (Figure 5A). Again, we find evidence for absorption of the GLP-1 cargo when fused to the C6:0-GM1 transport vehicle, but no absorption for the unfused GLP-1 peptide (Figure 5F). These experiments were performed in two different laboratories, using two different animal facilities with the same results. In all assays (Figure 5C–5F), we find the efficiency of intestinal absorption enabled by fusion to C6:0-GM1 was again almost as efficient as for IP injection of the peptide alone, implicating a high level of bioavailability for the GM1-fusion molecules applied by gastric gavage.

[3] = oral, 15 min after gastric gavage

Substance: GLP-1
- total area under glucose tolerance curves (AUC) [1]: 2184 and 5775 and 3223 and 5783 and 10013 and 10613 and 14078 and 12630 and 14685 and 4613 and 1628 and 6533 and 2735 and 13695 and 6728 and 15120 and 10928 and 9270 and 7061 and 9383 and 7166 and 10043 and 10253
- GLP-1 in blood, corrected for vehicle ([2]; IP-injected): 6.787 fmols per 100uls blood and 7.191 fmols per 100uls blood and 4.472 fmols per 100uls blood and 6.8463 fmols per 100uls blood and 3.406 fmols per 100uls blood and 4.493 fmols per 100uls blood and 6.695 fmols per 100uls blood and 7.88 fmols per 100uls blood and 13.0711 fmols per 100uls blood and 7.126 fmols per 100uls blood
- GLP-1 in blood, raw data not corrected for vehicle ([2]; IP-injected): 8.132 fmols in 100 uls blood and 10.5063 fmols in 100 uls blood and 7.066 fmols in 100 uls blood and 8.153 fmols in 100 uls blood and 6.729 fmols in 100 uls blood and 7.914 fmols in 100 uls blood and 21.2711 fmols in 100 uls blood and 15.3265 fmols in 100 uls blood and 7.237 fmols in 100 uls blood and 7.641 fmols in 100 uls blood
- GLP-1 in blood, corrected for vehicle [2, 3]: 0.3766 fmols per 100uls blood and 0.3584 fmols per 100uls blood and 0.3383 fmols per 100uls blood and 0.4572 fmols per 100uls blood and -1.003 fmols per 100uls blood and -1.627 fmols per 100uls blood and 2.205 fmols per 100uls blood and 0.253 fmols per 100uls blood and 1.235 fmols per 100uls blood and 0.303 fmols per 100uls blood and -0.01924 fmols per 100uls blood and 0.2681 fmols per 100uls blood and -0.002238 fmols per 100uls blood and -1.223 fmols per 100uls blood and 0.4322 fmols per 100uls blood and -3.718 fmols per 100uls blood
- GLP-1 in blood, raw data not corrected for vehicle [2, 3]: 2.657 fmols in 100 uls blood and 2.033 fmols in 100 uls blood and 5.865 fmols in 100 uls blood and 3.913 fmols in 100 uls blood and 4.895 fmols in 100 uls blood and 3.963 fmols in 100 uls blood and 0.01476 fmols in 100 uls blood and 0.3021 fmols in 100 uls blood and 0.03176 fmols in 100 uls blood and 6.977 fmols in 100 uls blood and 8.632 fmols in 100 uls blood and 4.482 fmols in 100 uls blood and 0.8266 fmols in 100 uls blood and 0.8084 fmols in 100 uls blood and 0.7883 fmols in 100 uls blood and 0.9072 fmols in 100 uls blood
